Experimental data taken from patent US20160115540A1, “PRODRUGS AND DRUGS” (Biogen MA Inc., priority 2013, published 2016).
Structures can show the parent of a compound that is named as a salt.

System: kidney
Assay: Transcriptional profiling on Affymetrix GeneChips, single dose, naïve mice: kidney
Type: in vivo, C57BL/6 mice
Conditions: for FC: 100DMF-vs-Veh, fold change of the probe set/gene named in the row (Affymetrix, naïve single dose); for Number of differentially expressed genes identified: Kidney: Naïve, Single Dose
Procedure: Treated mice were sacrificed at 2, 7, or 12 hours. Tissues (liver, spleen, kidney, jejunum, cortex, hippocampus, striatum and whole blood) were collected and analyzed by transcriptional profiling on mouse Affymetrix GeneChips.
Tissues (liver, spleen, kidney, jejunum, cortex, hippocampus, striatum and whole blood) were collected and analyzed by transcriptional profiling on mouse Affymetrix GeneChips.
Animals were exposed to CO2 and whole blood collected via cardiac puncture. Two 100 μl aliquots of whole blood were collected in 1.5 mL microcentrifuge tubes and snap frozen in liquid nitrogen. Peripheral (liver, spleen, kidney and jejunum) and CNS brain (cerebellum, hippocampus, striatum and cortex) tissues were harvested and snap frozen in liquid nitrogen, with special care taken to collect tissues of similar size and from the same location. All samples were stored at −80° C. until RNA extraction was conducted.
For RNA preparation, frozen tissues were placed in 2 mL RNAse-free 96-well blocks with 1.5 mL QIAzol Lysis Reagent (QIAgen) and a 3.2 mm stainless steel bead (BioSpec Products, Bartlesville, Okla.). Tissues were disrupted for four cycles of 45 seconds in a Mini-Beadbeater (Biospec Products). RNA was extracted in chloroform and the aqueous phase was mixed with an equal volume of 70% ethanol. Extracted RNA was applied to RNeasy 96 plates and purified by the spin method according to the manufacturer's protocol (RNeasy 96 Universal Tissue Protocol, QIAgen, Hilden Germany).
Automated sample amplifications and biotin labelings were carried out using the NuGEN Ovation RNA Amplification system V2 (Cat #3100), Ovation WB reagent (Cat #1300) and Encore Biotin module (Cat #4200) (NuGEN Technologies, Inc, San Carlos, Calif.) according to manufacturer's recommendations using an Arrayplex automated liquid handler (Beckman Coulter, Indianapolis, Ind.). Two micrograms of biotin labeled sscDNA probe were hybridized to Affymetrix GeneChip Affymetrix HT_MG-430_PM plate arrays with modified conditions as described in Allaire et al. Washing and staining of the hybridized arrays were completed as described in the GeneChip Expression analysis technical manual for HT plate arrays using the Genechip® Array Station (Affymetrix, Santa Clara, Calif.) with modifications as described in Allaire et al. The processed GeneChip® plate arrays were scanned using GeneTitan scanner (Affymetrix, Santa Clara, Calif.).
Affymetrix scans were subject to quality control (QC) measures. These tests included a visual inspection of the distribution of raw signal intensities and an assessment of RNA degradation, relative log expression (RLE), and normalized unsealed standard error (NUSE). All sample scans that passed these QC metrics were included in the analysis.
All CEL files were subjected to GC-content-based Robust Multi-array Average (GCRMA) normalization (version 2.20.0) (Irizarry R A, et al. Nucleic Acids Res 2003; 31:e15; Li C, et al. Genome Biol 2001; 2:[…]0032). Expression levels were log (base 2) transformed.
All calculations and analyses were carried out using R (version 2.11.1) and Bioconductor computational tools (Gentleman R. Springer Science+Business Media 2005).

COC(=O)/C=C/C(=O)OC [DMF, dimethyl fumarate]
FC Tmem88b 1436974_PM_at (100 DMF-vs-Veh, 2 h): −2.24
FC Tnfaip3 1433699_PM_at (100 DMF-vs-Veh, 2 h): −1.83
FC Tnfsf10 1439680_PM_at (100 DMF-vs-Veh, 2 h): −1.52
FC Trim7 1439352_PM_at (100 DMF-vs-Veh, 2 h): −1.54
FC Txnrd1 1421529_PM_a_at (100 DMF-vs-Veh, 2 h): 1.53
FC Txnrd1 (1424487_PM_x_at) (100 DMF-vs-Veh, 2 h): 1.99
FC Ubiad1 1424213_PM_at (100 DMF-vs-Veh, 2 h): −1.61
FC Ubxn7 1435912_PM_at (100 DMF-vs-Veh, 2 h): 1.51
FC Vps37b 1424380_PM_at (100 DMF-vs-Veh, 2 h): 1.56
FC Zbtb2 1434901_PM_at (100 DMF-vs-Veh, 2 h): 2.52
FC Zfp30 1449813_PM_at (100 DMF-vs-Veh, 2 h): −1.55
FC Zfp39 1441198_PM_at (100 DMF-vs-Veh, 2 h): −1.64
FC Zfp93 1418955_PM_at (100 DMF-vs-Veh, 2 h): −1.74
FC Zfp189 1425287_PM_at (100 DMF-vs-Veh, 2 h): 1.51
FC Zfp295 1425305_PM_at (100 DMF-vs-Veh, 2 h): 2.68
FC Zfp295 1441973_PM_at (100 DMF-vs-Veh, 2 h): 2.08
FC Zfp759 1452623_PM_at (100 DMF-vs-Veh, 2 h): −1.65
FC Zswim6 1434967_PM_at (100 DMF-vs-Veh, 2 h): 1.63
FC (7 h): −1.82
FC (12 h): 1.82
FC Adm (1416077_PM_at) (KIDNEY, 100 DMF-vs-Veh, 2 h): 1.56
FC Bhlhe40 (1418025_PM_at) (KIDNEY, 100 DMF-vs-Veh, 2 h): 1.59
FC Cyr61 (1416039_PM_x_at) (KIDNEY, 100 DMF-vs-Veh, 2 h): 2.43
FC Dbf4 (1418334_PM_at) (KIDNEY, 100 DMF-vs-Veh, 2 h): 2.08
FC Ddit3 (1417516_PM_at) (KIDNEY, 100 DMF-vs-Veh, 2 h): 3.97
FC Dnaja1 (1416288_PM_at) (KIDNEY, 100 DMF-vs-Veh, 2 h): 1.69
FC Dnaja4 (1418591_PM_at) (KIDNEY, 100 DMF-vs-Veh, 2 h): 2.05
FC Dnaja4 (1418592_PM_at) (KIDNEY, 100 DMF-vs-Veh, 2 h): 1.87
FC Dnajb1 (1416755_PM_at) (KIDNEY, 100 DMF-vs-Veh, 2 h): 3.03
FC Dnajb1 (1416756_PM_at) (KIDNEY, 100 DMF-vs-Veh, 2 h): 4.36
FC Dusp6 (1415834_PM_at) (KIDNEY, 100 DMF-vs-Veh, 2 h): 1.52
FC Dusp16 (1418401_PM_a_at) (KIDNEY, 100 DMF-vs-Veh, 2 h): 1.50
FC Egr1 (1417065_PM_at) (KIDNEY, 100 DMF-vs-Veh, 2 h): 4.60
FC Gclm 1418627_PM_at (KIDNEY, 100 DMF-vs-Veh, 2 h): 1.51
FC Hbegf (1418349_PM_at) (KIDNEY, 100 DMF-vs-Veh, 2 h): 2.03
FC Hbegf (1418350_PM_at) (KIDNEY, 100 DMF-vs-Veh, 2 h): 2.21
FC Ier2 (1416442_PM_at) (KIDNEY, 100 DMF-vs-Veh, 2 h): 1.75
FC Ifrd1 (1416067_PM_at) (KIDNEY, 100 DMF-vs-Veh, 2 h): 1.52
FC Igfbp1 (1418918_PM_at) (KIDNEY, 100 DMF-vs-Veh, 2 h): −2.89
FC Nab2 (1417930_PM_at) (KIDNEY, 100 DMF-vs-Veh, 2 h): 2.74
FC Nasp (1416042_PM_s_at) (KIDNEY, 100 DMF-vs-Veh, 2 h): 1.62
FC Nfil3 (1418932_PM_at) (KIDNEY, 100 DMF-vs-Veh, 2 h): 2.29
FC Pmaip1 (1418203_PM_at) (KIDNEY, 100 DMF-vs-Veh, 2 h): 1.68
FC Ppp2r3c (1417479_PM_at) (KIDNEY, 100 DMF-vs-Veh, 2 h): 1.59
FC Rcan1 (1416600_PM_a_at) (KIDNEY, 100 DMF-vs-Veh, 2 h): 1.51
FC Sertad1 (1417406_PM_at) (KIDNEY, 100 DMF-vs-Veh, 2 h): 2.06
FC Sirt1 (1418640_PM_at) (KIDNEY, 100 DMF-vs-Veh, 2 h): 1.68
FC Slc22a4 (1417639_PM_at) (KIDNEY, 100 DMF-vs-Veh, 2 h): −1.51
FC Tnfrsf12a 1418571_PM_at (KIDNEY, 100 DMF-vs-Veh, 2 h): 2.37
FC Tnfrsf12a 1418572_PM_x_at (KIDNEY, 100 DMF-vs-Veh, 2 h): 2.33
FC Tnnc1 (1418370_PM_at) (KIDNEY, 100 DMF-vs-Veh, 2 h): 1.89
FC Txnip (1415997_PM_at) (KIDNEY, 100 DMF-vs-Veh, 2 h): −1.73
FC Zfand2a (1415940_PM_at) (KIDNEY, 100 DMF-vs-Veh, 2 h): 1.55
FC Zfand5 (1416084_PM_at) (KIDNEY, 100 DMF-vs-Veh, 2 h): 1.63
FC Zfand5 (1416085_PM_s_at) (KIDNEY, 100 DMF-vs-Veh, 2 h): 1.68
Number of genes, DMF Only / MMF Only (Kidney): 61
Asns (1451095_PM_at) differential expression (Kidney, 2 hr): 3.03
Cbr3 (1427912_PM_at) differential expression (Kidney, 2 hr): 3.04
Gdf15 (1418949_PM_at) differential expression (Kidney, 2 hr): 5.39
Mthfd2 (1419253_PM_at) differential expression (Kidney, 2 hr): 2.06
Number of differentially expressed genes identified: Kidney (100 mpk DMF-vs-100 mpk MMF, 2 h after last dosing): 1
Number of differentially expressed genes identified: Kidney (100 mpk DMF-vs-100 mpk MMF, 7 h after last dosing): 1
Number of differentially expressed genes identified: Kidney (100 mpk DMF-vs-100 mpk MMF, 12 h after last dosing): 2
Number of differentially expressed genes identified: Kidney (100 mpk, vs Vehicle, 2 h after last dosing): 331
Number of differentially expressed genes identified: Kidney (100 mpk, vs Vehicle, 7 h after last dosing): 93
Number of differentially expressed genes identified: Kidney (100 mpk, vs Vehicle, 12 h after last dosing): 100
Asns (1451095_PM_at) differential expression (kidney, 7 hr): 1.92
Cbr3 (1427912_PM_at) differential expression (kidney, 7 hr): 5.88
Gdf15 (1418949_PM_at) differential expression (kidney, 7 hr): 1.75
Mthfd2 (1419253_PM_at) differential expression (kidney, 7 hr): 1.65
Asns (1451095_PM_at) differential expression (kidney, 12 hr): 2.65
Cbr3 (1427912_PM_at) differential expression (kidney, 12 hr): 5.67
Gdf15 (1418949_PM_at) differential expression (kidney, 12 hr): 1.77
Mthfd2 (1419253_PM_at) differential expression (kidney, 12 hr): 1.60
FC 1439640_PM_at (no gene symbol) (kidney, 100DMF-vs-100MMF, 2 h): 1.54
FC Nr1d1 (1426464_PM_at) (kidney, 100DMF-vs-100MMF, 7 h): 1.56
FC 1441333_PM_at (no gene symbol) (kidney, 100DMF-vs-100MMF, 12 h): 1.91
FC C76628 (1420187_PM_at) (kidney, 100DMF-vs-100MMF, 12 h): 1.59
